Data as given in ChEMBL document CHEMBL1201862, “PubChem BioAssay data set” (2004).
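In this assay, cells in 96-well plates receive the compound at five concentrations for 48 hours. Endpoints are linearly interpolated between the surrounding concentrations. At the GI50, growth is halved.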 Active and inactive are the calls of the source. No stated cut-off is given here; in the data, active = GI50 up to about 1.1 µM and inactive = higher.

Legend:
Test in all cases: NCI anticancer screen, dose series, 48 h
[1] = system: K562
[2] = system: HCC 2998
[3] = system: EKVX
[4] = system: OVCAR-8
[5] = system: UACC-257
[6] = system: RXF 393
[7] = system: NCI/ADR-RES
[8] = system: MDA-MB-231
[9] = system: CAKI-1
[10] = system: SK-MEL-5
[11] = system: SK-MEL-28
[12] = system: SNB-19
[13] = system: SW-620
[14] = system: MDA-N
[15] = system: NCI-H460
[16] = system: MCF7

Measured: GI50

Cc1cc(O)c(C(C)C)cc1NC(=O)Nc1cccc2ccccc12
inactive: [1] 34.6 µM | [2] 18.8 µM | [3] 14.7 µM | [4] 30.8 µM | [5] 17.5 µM | [6] 14.2 µM | [7] 20.9 µM | [8] 17.7 µM | [9] 16.2 µM | [10] 12.5 µM | [11] 23.2 µM | [12] 11.8 µM | [13] 27.9 µM | [14] 12.7 µM | [15] 16.5 µM

NCC1CCCCC1.O=C(O)NCC1CCCCC1
inactive: [1] 6.28 µM | [3] 30.1 µM | [4] 13.2 µM | [5] 22.2 µM | [6] 19.1 µM | [7] 26 µM | [8] 25.8 µM | [9] 28.2 µM | [10] 15.3 µM | [11] 38 µM | [12] 47.3 µM | [13] 17.9 µM | [14] 15.9 µM | [15] 13.4 µM

Nc1ccc2[nH]cc(CCC(=O)O)c2c1
inactive: [3] > 100 µM | [4] > 100 µM | [5] > 100 µM | [16] > 100 µM | [6] > 100 µM | [7] > 100 µM | [8] > 100 µM | [9] > 100 µM | [10] > 100 µM | [11] > 100 µM | [12] > 100 µM | [13] 88.1 µM | [14] > 100 µM

Cc1cc(Cl)ccc1OCC(=O)Nc1nc(N)nc(N)n1
inactive: [1] > 100 µM | [3] > 100 µM | [4] > 100 µM | [5] > 100 µM | [16] > 100 µM | [6] > 100 µM | [7] > 100 µM | [8] > 100 µM | [9] > 100 µM | [10] > 100 µM | [11] > 100 µM | [12] > 100 µM | [13] > 100 µM | [14] > 100 µM | [15] > 100 µM

COc1cccc2c1C(=O)c1ccc3cc(CO)cc(O)c3c1C2=O
active: [4] 0.231 µM | [5] 0.0879 µM | [16] 0.41 µM | [7] 0.515 µM | [8] 0.594 µM | [10] 0.139 µM | [13] 0.19 µM | [14] 0.19 µM | [15] 0.304 µM
inactive: [1] 1.41 µM | [3] 1.87 µM | [6] 1.34 µM | [9] 2.72 µM | [11] 1.86 µM | [12] 1.79 µM

Cc1cc2cc3ccccc3cc2c(=O)[nH]1
inactive: [1] > 10 µM | [3] > 10 µM | [4] > 10 µM | [5] > 10 µM | [16] > 10 µM | [6] > 10 µM | [12] > 10 µM | [13] > 10 µM | [14] > 10 µM | [15] > 10 µM

COc1cc(C2SCC(=O)N2c2ccc(-n3c(-c4ccccc4)nc4ccccc4c3=O)cc2)ccc1O (stereo not drawn)
inactive: [1] > 100 µM | [2] 58.3 µM | [3] > 100 µM | [4] > 100 µM | [5] > 100 µM | [16] 70 µM | [7] 34.3 µM | [8] 97.9 µM | [9] > 100 µM | [10] 49.3 µM | [11] > 100 µM | [12] > 100 µM | [13] > 100 µM | [14] > 100 µM | [15] 69.5 µM

Cc1n2nc(N)sc2n[n+]1CC(=O)c1ccccc1
inactive: [1] > 100 µM | [2] > 100 µM | [3] > 100 µM | [4] > 100 µM | [5] > 100 µM | [16] > 100 µM | [6] > 100 µM | [7] > 100 µM | [9] > 100 µM | [10] > 100 µM | [11] > 100 µM | [12] > 100 µM | [13] > 100 µM | [14] > 100 µM | [15] > 100 µM

NCCSC1(O)C(=O)c2ccccc2-c2ccccc21 (stereo not drawn)
inactive: [3] 1.66 µM | [16] 1.83 µM | [6] 1.64 µM | [11] 1.21 µM | [12] 1.53 µM | [13] 1.52 µM | [15] 1.78 µM
active: [1] 0.382 µM | [4] 0.262 µM | [5] 0.435 µM | [7] 0.272 µM | [8] 0.483 µM | [10] 0.265 µM

COc1cc2c(/C=C3/C(=O)Nc4ccc(Cl)cc43)c(Cl)n(Cc3ccccc3)c2cc1C
inactive: [1] 3.14 µM | [4] 2.59 µM | [5] 6.34 µM | [16] 5 µM | [6] 2.31 µM | [7] 3.86 µM | [8] 2.48 µM | [9] 2.97 µM | [10] 3.32 µM | [11] 2.39 µM | [12] 3.1 µM | [13] 6.73 µM | [15] 3.3 µM
